In doi:10.1101/2025.06.07.658458v1, “Discovery of excited state proton transfer in flavin-based fluorescent protein with large Stokes shift” (biorxiv, 2025) one finds Kd, denaturation temperature and thermal stability data, which are given here for two compounds.

The Kd is the constant that tells how readily two partners part at equilibrium.

What all share (type): binding
For experiment [1], the target named is T1, CagFbFP (Q89E variant: LSSFbFP) (Chloroflexus aggregans, UniProt B8GAY9, C85A/Q89E).
T1 construct: gene Cagg_3753; C85A background inferred from printed I52V-A85Q and known biology
T1 sequence (B8GAY9 47-153 C85A/Q89E): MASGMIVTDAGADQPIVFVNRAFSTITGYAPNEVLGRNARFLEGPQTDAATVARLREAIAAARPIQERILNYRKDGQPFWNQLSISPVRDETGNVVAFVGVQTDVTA
Put plainly: chromophore dissociation constant measurement, details in cited reference; crystal structure of complex.

Experiment [2] addresses T1, CagFbFP (Q89E variant: LSSFbFP). Description: melting curve by flavin fluorescence in real-time PCR cycler. The note with it: Tm of the complex, not a shift.
The target is the same in experiment [3]. The description is as above. The note with it: Tm of the complex, not a shift. The source holds these as a separate data set.

For `Cc1cc2nc3c(=O)[nH]c(=O)nc-3n(C[C@H](O)[C@H](O)[C@H](O)COP(=O)(O)O)c2cc1C` [FMN, flavin mononucleotide], in experiment [1], the Kd came out at 360 ± 50 nM. In addition, the denaturation temperature in experiment [2] came out at 81 °C.

As for `Cc1cc2nc3[nH]c(=O)[nH]c(=O)c3nc2cc1C` [LC, lumichrome], the equilibrium dissociation constant (Kd) in experiment [1] amounted to 900 ± 300 nM. The thermal stability in experiment [3] is 58 °C.
